The text below walks through data of patent publication US20170196954A1, “PRIME-BOOST REGIMENS WITH A TLR4 AGONIST ADJUVANT AND A LENTIVIRAL VECTOR” (priority 2014, published 2017).

Data set [1] deals with patients and healthy volunteers. The following applies: over 900 patients and healthy volunteers. The source says:
GLA is a fully synthetic TLR4 agonist, which has been examined in over 900 patients and healthy volunteers as an adjuvant with NY-ESO-1 protein and with infectious agent antigens such as in flu vaccines. […] A higher Mug dose cohort is currently being examined in this Phase 1 trial.

Another data set relates to HSV. The following applies: continuous suppressive administration, early intervention; cited from earlier work.

On to `CCCCCCCCCCCCCC(=O)O[C@H](CCCCCCCCCCC)CC(=O)O[C@@H]1[C@@H](NC(=O)C[C@H](CCCCCCCCCCC)OC(=O)CCCCCCCCCCCCC)[C@H](OC[C@H]2O[C@H](O)[C@H](NC(=O)C[C@H](O)CCCCCCCCCCC)[C@@H](OC(=O)C[C@H](O)CCCCCCCCCCC)[C@@H]2O)O[C@H](CO)[C@H]1OP(=O)(O)O` [GLA, glucopyranosyl lipid A], for which the safety profile result in data set [1] is recorded as “established safety profile”.

Take `CC(C)[C@H](N)C(=O)OCCOCn1cnc2c(=O)[nH]c(N)nc21` [Valacyclovir]: the “reduction of HSV transmission” value in the data set on HSV is on record as “less than 50%”.
